Reference: PubChem BioAssay (NCI)
“And” between values parts separate entries of the source, which are not always exact repeats. Identical values can stand only once.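 The compound was tested at five concentrations on cells cultured in 96-well plates, with a 48-hour exposure period. Abbreviation: GI50, concentration required for 50% inhibition of growth. TGI: total growth inhibition.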 Where a SMILES comes first, the peptide text is derived from it. [ ]: non-standard residue; d: D form. The star is where a group is joined. ξ: configuration not given here. ξPhe(4-NO2) = NC(Cc1ccc([N+](=O)[O-])cc1)C(=O)O; Boc = CC(C)(C)OC(=O)*

Experiments:
Assay in all cases: DTP human tumour cell line panel, 48 h
NCI-H522 lung = test system: NCI-H522 lung
EKVX NSCLC = test system: EKVX NSCLC
RXF 393 renal = test system: RXF 393 renal
HL-60(TB) leukemia = test system: HL-60(TB) leukemia
MDA-MB-231 breast = test system: MDA-MB-231 breast
IGROV1 ovarian = test system: IGROV1 ovarian
MALME-3M melanoma = test system: MALME-3M melanoma
786-0 renal = test system: 786-0 renal
OVCAR-3 ovarian = test system: OVCAR-3 ovarian
SK-OV-3 ovarian = test system: SK-OV-3 ovarian
A549 NSCLC = test system: A549 NSCLC
CCRF-CEM leukemia = test system: CCRF-CEM leukemia
MDA-N = test system: MDA-N

| SMILES | TGI (NCI-H522 lung) | TGI (EKVX NSCLC) [µM] | TGI (RXF 393 renal) | TGI (HL-60(TB) leukemia) [µM] | TGI (MDA-MB-231 breast) [µM] | TGI (IGROV1 ovarian) [µM] | TGI (MALME-3M melanoma) [µM] | TGI (786-0 renal) [µM] | TGI (OVCAR-3 ovarian) [µM] | TGI (SK-OV-3 ovarian) | TGI (A549 NSCLC) [µM] | TGI (CCRF-CEM leukemia) [µM] | TGI (MDA-N) [µM] | GI50 (NCI-H522 lung) | GI50 (RXF 393 renal) | GI50 (OVCAR-3 ovarian) | GI50 (SK-OV-3 ovarian) |
| --- | --- | --- | --- | --- | --- | --- | --- | --- | --- | --- | --- | --- | --- | --- | --- | --- | --- |
| COc1ncc(C#CC(=O)c2ccccc2)c(OC)n1 | 2.81 µM | 9.16 | 3.79 µM | 4.68 | 5.49 | 7.49 | 3.62 | 4.2 | 10.3 | 42.1 µM | 33.1 | 2.07 | 3.73 |  |  |  |  |
| C=CC(C)(C)n1cc(C2=C(O)C(=O)C(c3c(CC=C(C)C)[nH]c4ccccc34)=C(O)C2=O)c2ccccc21 | 6.18 µM | 6.01 | 6.05 µM | 4.69 | 7.78 | 2.45 | 3.9 | 6.97 | 3.05 | 5.41 µM | 7.85 | 8.96 | 4.08 |  |  |  |  |
| COc1ccc(-c2nc(SC)n(C3OC(COC(C)=O)C(OC(C)=O)C(OC(C)=O)C3OC(C)=O)c(=O)c2C#N)cc1 (stereo not given) | 72.7 µM and > 100 µM | > 100 | 35.4 µM and > 100 µM | > 100 | > 100 | > 100 | > 100 | > 100 | > 100 | 98.4 µM and > 100 µM | > 100 | > 100 | > 100 | 18.7 µM and > 100 µM | 16.5 µM and > 100 µM | 38.2 µM and > 100 µM | 34.5 µM and > 100 µM |
| CCNC(=O)CNC(=O)C(Cc1ccc([N+](=O)[O-])cc1)NC(=O)OC(C)(C)C (stereo not given) (Boc-[ξPhe(4-NO2)]-Gly-NHEt) | > 100 µM | > 100 | > 100 µM | > 100 | > 100 | > 100 | > 100 | > 100 | > 100 | > 100 µM | > 100 | > 100 | > 100 |  |  |  |  |
| FC(F)(F)C1(c2ccccc2)SCc2nc3ccccc3n21 (stereo not given) | > 100 µM | > 100 | > 100 µM | > 100 | > 100 | > 100 | > 100 | > 100 | > 100 | > 100 µM | > 100 | > 100 | > 100 |  |  |  |  |
| COC(=O)C1SC[C@H]2C(=O)N(c3ccccc3)C(=O)N12 (stereo not given in full) | > 100 µM | > 100 | > 100 µM | > 100 | > 100 | > 100 | > 100 | > 100 | > 100 | > 100 µM | > 100 | > 100 | > 100 |  |  |  |  |
| Cc1ccc(NC(=S)N=Nc2c(O)[nH]c3ccccc23)cc1 | > 100 µM | > 100 | > 100 µM | > 100 | > 100 | > 100 | > 100 | > 100 | > 100 | > 100 µM | > 100 | > 100 | > 100 |  |  |  |  |
| CCN(CCCl)c1cc(CN(C)C)cc(NC(=O)c2ccc(C(=O)Nc3ccccc3)cc2)c1 | 0.317 µM |  | 0.307 µM | 0.695 | 7.55 | 0.448 | 0.425 | 0.581 |  | 11.1 µM | 11.9 | 1.14 | 0.925 |  |  |  |  |
| COc1cc(C(=O)N(C(=S)OC23CC4CC(CC(C4)C2)C3)c2ccccc2)cc(OC)c1OC | 25.9 µM | 48.1 | > 100 µM | 45.8 | > 100 |  | 82.1 | > 100 | > 100 | > 100 µM | > 100 | 36 | 85.8 |  |  |  |  |
| C[C@H]1[C@H](C)CC[C@]2(C(=O)OC3OC(CO)C(O)C(O)C3O)CC[C@]3(C)C(=CC[C@@H]4[C@@]5(C)C[C@@H](O)[C@@H]6OC(=O)c7cc(O)c(O)c(O)c7-c7c(cc(O)c(O)c7O)C(=O)OC[C@]6(CO)[C@@H]5CC[C@]43C)[C@H]12 (stereo not given in full) | 37.3 µM | > 100 | > 100 µM | 87.8 | 26.4 | > 100 | > 100 | 32.9 | > 72.1 | > 100 µM | > 100 | 69.2 | 51.1 |  |  |  |  |
| Brc1ccc(C2CC3(c4ccccc4)ON=C(c4ccccc4)N3c3ccccc3S2)cc1 (stereo not given) | > 100 µM | > 100 | > 100 µM | > 100 | > 100 | > 100 | > 100 | > 100 | > 100 | > 100 µM | > 100 | > 100 | > 100 |  |  |  |  |
| COC(=O)C1(Cc2ccc(C)cc2)Cc2c(C)cccc2C1=O (stereo not given) | 42.1 µM | > 100 | 40.5 µM | 25 | > 100 | > 100 | 30.8 | 76.8 | 34.5 | > 100 µM | 54.5 | > 100 | 14.4 |  |  |  |  |
| OC1(C2(c3ccc(Cl)cc3)CCCC2)c2ccccc2C2=NCCN21 (stereo not given) | 32.3 µM | 31.6 | 9.51 µM | 33.2 | 29.6 | 26.8 | 34.7 | 27.3 | 30.9 | 33.9 µM | 31.3 | 38.5 | 29.7 |  |  |  |  |
